Results published in US8076367B2, “Benzimidazolylidene propane-1,3-dione derivative or salt thereof” (Astellas Pharma Inc., priority 2004, dated 2011).

Experiments:
[1] = target: T1, human GnRH receptor (Homo sapiens, UniProt P30968); experiment: Test on GnRH receptor antagonism (125I-D-Trp6-LHRH binding inhibition); conditions: inhibition of 125I-D-Trp6-LHRH binding to human GnRH receptor
T1 sequence (P30968 1-328): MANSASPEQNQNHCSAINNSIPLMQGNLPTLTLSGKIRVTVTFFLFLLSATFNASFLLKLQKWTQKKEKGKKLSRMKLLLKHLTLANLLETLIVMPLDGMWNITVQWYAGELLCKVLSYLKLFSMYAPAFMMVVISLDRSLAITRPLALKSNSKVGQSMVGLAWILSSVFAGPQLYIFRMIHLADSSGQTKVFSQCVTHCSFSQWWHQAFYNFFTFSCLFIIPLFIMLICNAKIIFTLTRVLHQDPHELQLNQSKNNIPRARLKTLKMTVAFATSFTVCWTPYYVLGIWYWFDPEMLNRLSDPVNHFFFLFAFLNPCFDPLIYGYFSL
From the text: GnRH receptor antagonism test method described on p. 56 of the Patent Reference 1.

[2] = Measurement of blood concentration of a compound by ex vivo binding assay; conditions: Wistar male rat, oral 10 mg/kg in 0.5% MC, serum 2 hours after administration, read-out: Blood compound concentration (B) 2 hour value
Experimental: Each compound to be tested was dissolved or suspended in 0.5% methyl cellulose (MC) solution and was orally administered to Wistar male rat of 9 weeks of age (SLC Japan) at a dose of 10 mg/kg. Blood sample was collected after 2 hours of the administration to obtain serum.
Each serum sample was mixed with the same volume of methanol to remove protein and optionally diluted with an assay buffer, and then the ^125I-D-Trp^6-LHRH binding inhibition ratio was measured in the same manner as in Test Example 1. Using a separately prepared calibration curve on the concentration-binding inhibition of compounds to be tested, blood concentration of each compound (μM) was calculated from the binding inhibition ratio.

[3] = target: Cytochrome P450 (CYP3A4) (Homo sapiens, UniProt P08684); experiment: Cytochrome P450 (CYP3A4) enzyme inhibition, Inhibition Test II (preincubation); format: in vitro ADME; conditions: 30 minutes preincubation with human liver microsome and NADPH, then midazolam 20 minutes; compared with Ex 40, Ex 251, Ex 239 of Patent Reference 1
Experimental: Thereafter, midazolam as the substrate was added thereto and incubated at 37° C. for 20 minutes.

[4] = Test on metabolic stability in human liver microsome; format: in vitro ADME; conditions: human liver microsome 0.2 mg protein/ml, 37° C. 15 minutes; compared with Ex 40, Ex 251, Ex 239 of Patent Reference 1

Chain of Cytochrome P450 (CYP3A4) (P08684 whole entry): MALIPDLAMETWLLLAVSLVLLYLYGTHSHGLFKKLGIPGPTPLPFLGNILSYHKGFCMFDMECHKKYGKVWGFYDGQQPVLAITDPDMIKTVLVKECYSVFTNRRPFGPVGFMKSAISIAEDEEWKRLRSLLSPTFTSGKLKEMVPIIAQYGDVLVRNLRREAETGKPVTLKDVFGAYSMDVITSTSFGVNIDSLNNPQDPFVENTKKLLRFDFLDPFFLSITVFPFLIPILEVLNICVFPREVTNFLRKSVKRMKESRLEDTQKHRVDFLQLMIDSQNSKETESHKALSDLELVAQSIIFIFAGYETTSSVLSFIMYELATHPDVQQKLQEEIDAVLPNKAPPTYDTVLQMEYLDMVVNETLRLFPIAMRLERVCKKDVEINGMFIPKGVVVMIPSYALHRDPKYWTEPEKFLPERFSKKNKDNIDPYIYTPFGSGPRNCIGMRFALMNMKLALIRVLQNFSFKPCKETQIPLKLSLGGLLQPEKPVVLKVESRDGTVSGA

Row | IC50 [1] [nM] | concentration at 2 h [2] [nM] | Inhibitory activity II (CYP3A4) [3] | metabolic stability in human liver microsome (in vitro clearance) [4] | melting point [°C] | Structure (SMILES)
1 | 0.082 | 710 |  |  |  | O=C(C(C(=O)c1cccc(C(O)CO)c1)=C1Nc2ccccc2N1)c1cc(F)cc(Cl)c1 (stereo not drawn) [Ex 2-3]
2 | 0.17 | 1310 | superior actions | superior metabolic stability | 139 to 140 | O=C(C(C(=O)c1cc(F)c(F)c(F)c1)=C1Nc2ccccc2N1)c1cccc(C(O)CO)c1 (stereo not drawn) [Ex 2-4]
3 | 0.1 | 820 |  |  |  | O=C(C(C(=O)c1cccc(C(O)CO)c1)=C1Nc2ccc(F)cc2N1)c1cc(F)cc(F)c1 (stereo not drawn) [Ex 2-5]
4 | 0.19 | 1650 |  |  |  | O=C(C(C(=O)c1cccc(C(O)CO)c1)=C1Nc2ccccc2N1)c1cccc(F)c1 (stereo not drawn) [Ex 2-7]
5 | 0.15 | 920 |  |  |  | O=C(C(C(=O)c1cccc(C(O)CO)c1)=C1Nc2cc(F)c(Cl)cc2N1)c1cc(F)cc(F)c1 (stereo not drawn) [Ex 2-12]
6 | 0.2 | 1140 |  |  |  | O=C(C(C(=O)c1cc(C(O)CO)ccc1F)=C1Nc2ccccc2N1)c1cc(F)cc(F)c1 (stereo not drawn) [Ex 2-20]
7 | 0.22 | 2160 |  |  | 127 to 129 | O=C(C(C(=O)c1cc(F)cc(F)c1F)=C1Nc2ccccc2N1)c1cccc(C(O)CO)c1 (stereo not drawn) [Ex 2-48]
8 | 0.12 | 880 |  |  |  | O=C(C(C(=O)c1cccc(C(O)CO)c1)=C1Nc2ccccc2N1)c1cccc(Cl)c1 (stereo not drawn) [Ex 2-50]
9 | 0.093 | 1360 | superior actions | superior metabolic stability | 190 to 191 | O=C(C(C(=O)c1cccc([C@@H](O)CO)c1)=C1Nc2ccccc2N1)c1cccc(F)c1 [Ex 4-1, 2-(1,3-dihydro-2H-benzimidazol-2-ylidene)-1-{3-[(1R)-1,2-dihydroxyethyl]phenyl}-3-(3-fluorophenyl)propane-1,3-dione]
10 | 0.1 | 1040 | superior actions | superior metabolic stability | 197 to 198 | O=C(C(C(=O)c1cccc([C@@H](O)CO)c1F)=C1Nc2ccccc2N1)c1cccc(F)c1 [Ex 4-4]
11 | 0.12 | 3740 | superior actions | superior metabolic stability | 228 to 229 | Cc1c(C(=O)C(C(=O)c2cc(F)cc(F)c2)=C2Nc3ccccc3N2)cccc1[C@@H](O)CO [Ex 4-5]
12 | 0.081 | 1790 |  |  | 132 to 133 | CCCCc1c(C(=O)C(C(=O)c2cccc(F)c2)=C2Nc3ccccc3N2)cccc1[C@@H](O)CO [Ex 4-8]
13 | 0.076 | 1440 |  |  | 134 to 136 | O=C(C(C(=O)c1cccc([C@@H](O)CO)c1Cl)=C1Nc2ccccc2N1)c1cccc(Cl)c1 [Ex 4-15]
14 | 0.24 | 2170 | superior actions | superior metabolic stability | 125 to 127 | O=C(C(C(=O)c1cccc([C@@H](O)CO)c1Cl)=C1Nc2ccccc2N1)c1cccc(F)c1 [Ex 4-21]
15 | 0.13 | 2170 | superior actions | superior metabolic stability | 147 to 149 | O=C(C(C(=O)c1ccc(F)c([C@@H](O)CO)c1)=C1Nc2ccccc2N1)c1cc(F)cc(F)c1 [Ex 4-22]
16 | 0.18 | 1110 |  |  |  | Cc1c(C(=O)C(C(=O)c2cccc(Cl)c2)=C2Nc3ccccc3N2)cccc1[C@@H](O)CO [Ex 4-23]
17 | 0.14 | 1390 | superior actions | superior metabolic stability |  | Cc1cccc(C(=O)C(C(=O)c2cccc([C@@H](O)CO)c2C)=C2Nc3ccccc3N2)c1 [Ex 4-25]
18 | 0.19 | 6440 | superior actions | superior metabolic stability | 215 to 217 | Cc1c(C(=O)C(C(=O)c2ccccc2F)=C2Nc3ccccc3N2)cccc1[C@@H](O)CO [Ex 4-29]
19 | 0.1 | 1500 | superior actions | superior metabolic stability | 126 to 129 | O=C(C(C(=O)c1cccc([C@@H](O)CO)c1Cl)=C1Nc2ccccc2N1)c1cc(F)cc(F)c1 [Ex 4-30]
20 | 0.12 | 670 |  |  |  | Cc1cccc(C(=O)C(C(=O)c2cccc([C@@H](O)CO)c2Cl)=C2Nc3ccccc3N2)c1 [Ex 4-32]
21 | 0.12 | 1590 |  |  |  | O=C(C(C(=O)c1cccc([C@@H](O)CO)c1F)=C1Nc2ccccc2N1)c1cc(F)cc(F)c1 [Ex 4-33]
22 |  |  |  |  | 189 to 190 | O=C(C(C(=O)c1cccc([C@@H](O)CO)c1)=C1Nc2ccccc2N1)c1cc(F)cc(F)c1 [Ex 13-2, 1-(3,5-difluorophenyl)-2-(1,3-dihydro-2H-benzimidazol-2-ylidene)-3-{3-[(1R)-1,2-dihydroxyethyl]phenyl}propane-1,3-dione]
